Measured values taken from patent publication US9096650B2, “Cyclic oligopeptides for binding to a target ligand” (LEXCICON LIMITED, priority 2006, dated 2015).
[ ]: non-standard residue; d: D form. Gly(decyl) = CCCCCCCCCC[C@H](N)C(=O)O

How the values were obtained:
[1] = test system: J774A.1 cells (a macrophage cell line); format: cell-based; conditions: peptide 12.5 ug/ml; CTB 10 ug/ml; CTB alone 690.8, medium control 67.5
TNF secretion = conditions: in words; literature reference; cited from earlier work
TNF = assay: Suppression of TNF secretion stimulated by LPS in rats (Example 5); format: in vivo
Protocol: • 1. A cyclic octapeptide with the structure cyclo(-DF-S-Σ-R-DF-S-ΣR-), where Σ represents the associating amino acid as an L-alpha aminocarboxylic acid and the associating functional group borne on the associating amino acid as a side-chain residue consisting of a straight aliphatic chain containing ten carbon atoms, was prepared as a solution in transcutol and hydroxypropyl beta-cyclodextrin as described in example 4, where the concentration of peptide was 1 mg/ml, and the final concentration of cyclodextrin was 40 mg/ml. • 2. Rats weighing 250 g were injected i.p. with 1 ml of peptide solution (1 mg peptide per rat). A second group of rats received 1 ml of the transcutol/cyclodextrin vehicle containing no peptide. One hour later, the rats were further injected with 1 mg of lipopolysaccharide (from Salmonella abortus equi). • 3. 150 minutes later, blood samples were taken, and TNF levels measured in the two groups by ELISA.

[2] = test system: J774-1 cells (a macrophage cell line); assay: Suppression of TNF secretion stimulated by LPS in a macrophage cell line, varying epitope order and stereochemistry of associating amino acids (Example 3); format: cell-based; conditions: peptide 50 ug/ml; LPS 1.25 ug/ml; LPS alone 1861.9
Protocol: • 1. Cyclic octapeptides were prepared with the following structures: cyclo(-DF-S-ΣL-R-DF-S-ΣL-R-) cyclo(-DF-S-ΣL-R-DF-S-ΣD-R-) cyclo(-DF-S-ΣD-R-DF-S-ΣD-R-) cyclo(-DF-R-ΣL-S-DF-R-ΣL-S-) cyclo(-DF-R-ΣL-S-DF-R-ΣD-S-) cyclo(-DF-R-ΣD-S-DF-R-ΣD-S-) wherein F, S and R are the epitope-forming amino acids, ΣL represents an associating amino acid which is an L-alpha aminocarboxylic acid in which the associating functional group is a side-chain residue consisting of an unbranched —C10H21; ΣD represents an associating amino acid which is a D-alpha aminocarboxylic acid in which the associating functional group is a side-chain residue consisting an unbranched —C10H21. These cyclic oligopeptides were prepared as solutions in distilled water at a concentration of 1 mg/ml. • 2. J774-1 cells (a macrophage cell line) were plated out in all the wells of a 24-well cluster plates at a seeding density of 3×10^5 cells/ml/well (1 ml RPMI 1640 culture medium per well), and incubated overnight at 37° C. in 5% CO2/air. • 3. The following day, the solutions from step 1 were administered to eighteen wells containing cells in step 2, to give three wells each with a final concentration of 50 ug/ml. The remaining wells were left untreated. The plate was incubated for a further four hours at 37 degC. • 4. Lipopolysaccharide (from E. coli strain 0111 B4) was added to the wells receiving the octapeptide solutions, as well as three of the wells receiving no peptide. The concentration of lipopolysaccharide was 1.25 ug/ml. • 5. The plate was incubated overnight, and the following day the supernatants were assayed for TNF using a commercial ELISA kit.

[3] = test system: J774A.1 cells (a macrophage cell line); assay: Suppression of LPS-stimulated TNF secretion by peptide formulated with hydroxypropyl beta-cyclodextrin (Example 4); format: cell-based
Protocol: • 1. A cyclic octapeptide with the structure cyclo(-DF-S-Σ-R-DF-S-Σ-R-) was prepared as a solution in transcutol at a concentration of 5 mg/ml, where Σ represents the associating amino acid as an L-alpha aminocarboxylic acid and the associating functional group borne on the associating amino acid as a side-chain residue consisting of a straight aliphatic chain containing ten carbon atoms. • 2. Six separate aliquots of 200 ul of the solution in step 1 were transferred to fresh 8 ml vials and mixed with slow vortexing with 800 ul of a solution of hydroxy-propyl beta cyclodextrin at a concentration 50, 25, 12.5, 6.25, 3.125 or 1.5625 mg/ml in distilled water • 2. J774A.1 cells (a macrophage cell line) were plated out in all the wells of a 24-well cluster plates at a seeding density of 5×10^5 cells/ml/well (1 ml RPMI 1640 culture medium per well), and incubated overnight at 37° C. in 5% CO2/air. • 3. The following day, each of the solutions from step 1 were administered in appropriate volumes to wells containing cells in step 2, to give three wells each with a final concentration of 8, 4, or 2 ug/ml. The remaining wells were left untreated. The plate was incubated for a further four hours at 37 degC. • 4. Lipopolysaccharide (from E. coli strain 0111 B4) was added to the wells receiving the octapeptide solution, as well as three of the wells receiving no peptide. The final concentration of lipopolysaccharide was 0.625 ug/ml. • 5. The plate was incubated overnight, and the following day the supernatants were assayed for TNF using a commercial ELISA kit.

[4] = test system: J774A.1 cells (a macrophage cell line); assay: Dose response: suppression of TNF secretion stimulated by lipopolysaccharide (LPS) in a macrophage cell line (Example 1); format: cell-based; conditions: LPS 0.625 ug/ml
Protocol: • 1. A cyclic octapeptide with the structure: cyclo(-DF-S-Σ-R-DF-S-Σ-R-) • was synthesised using standard methods based on the Merrifield resin-based technique, followed by solution-phase cyclisation. The purified peptide was prepared as a solution in distilled water at a concentration of 1 mg/ml. • R, F and S represent the epitope-forming amino acids and Σ represents the associating functional group borne on the associating amino acid wherein the associating amino acid is an L-alpha aminocarboxylic acid and the associating functional group is a side-chain residue consisting of a straight aliphatic chain containing ten carbon atoms. • All amino acids are in the L form unless indicated otherwise. • All amino acids are linked by peptide bonds. • 2. J774A.1 cells (a macrophage cell line) were plated out in all the wells of a 24-well cluster plates at a seeding density of 5×10^5 cells/ml/well (1 ml RPMI 1640 culture medium per well), and incubated overnight at 37° C. in 5% CO2/air. • 3. The following day, the solution from step 1 was administered to fifteen wells containing cells in step 2, to give three wells each with a final concentration of 50, 25, 12.5, 6.25 or 3.125 ug/ml. The remaining wells were left untreated. The plate was incubated for a further four hours at 37 degC. • 4. Lipopolysaccharide (from E. coli strain 0111 B4) was added to the wells receiving the octapeptide solution, as well as three of the wells receiving no peptide. The final concentration of lipopolysaccharide was 0.625 ug/ml. • 5. The plate was incubated overnight, and the following day the supernatants were assayed for TNF using a commercial ELISA kit.

[5] = test system: J774A.1 cells (a macrophage cell line); assay: Suppression of LPS-stimulated TNF secretion by cyclic analogues of Copaxone (Example 6); format: cell-based; conditions: for TNF concentration: peptide 12.5 ug/ml as cyclodextrin complex, LPS 0.1 ug/ml, medium + LPS 637.6
Protocol: • 1. Two cyclic oligopeptides were prepared with the following structures: cyclo(-A-K-Σ-Y-E-K-A-Σ-E-Y-) cyclo(-A-K-Σ-E-Y-K-A-Σ-Y-E-) • All amino acids are in the L form unless indicated otherwise. • All amino acids are linked by peptide bonds. • A, K, Y and E represent the epitope-forming amino acids and Σ represents the associating functional group borne on the associating amino acid wherein the associating amino acid is an L-alpha aminocarboxylic acid and the associating functional group is a side-chain residue consisting of a straight aliphatic chain containing ten carbon atoms. • The cyclic oligopeptides were prepared as solutions in hexafluoro-isopropanol (HFIP) at a concentration of 10 mg/ml, then mixed with equal volumes of HFIP solution containing beta-hydroxypropyl cyclodextrin at a concentration of 50 mg/ml. The organic solutions were then dried down under nitrogen, and the peptide/cyclodextrin complex redissolved in distilled water to give a final concentration of cyclic oligopeptide of 1 mg/ml. • 2. J774A.1 cells (a macrophage cell line) were plated out in all the wells of a 24-well cluster plate at a seeding density of 3×10^5 cells/ml/well (1 ml RPMI 1640 culture medium per well), and incubated overnight at 37° C. in 5% CO2/air. • 3. The following day, the solutions from step 1 were administered to wells containing cells in step 2, to give three wells each with a final concentration of 12.5 ug/ml of peptide. Additional wells containing cyclodextrin alone at 62.5 ug/ml were also prepared. The remaining wells were left untreated. The plate was incubated for a further four hours at 37 degC. • 4. Lipopolysaccharide (from E. coli strain 0111 B4) was added to the wells receiving the cyclic oligopeptide solution, as well as three of the wells receiving no peptide. The final concentration of lipopolysaccharide was 0.1 ug/ml. • 5. The plate was incubated overnight, and the following day the supernatants were assayed for TNF using a commercial ELISA kit.

**Q.** With cyclo(-DF-S-Σ4-R-DF-S-Σ4-R-) as the substance, how does the “Concentration of TNF” value [1] read?
**A.** 621.1 pg/mL

**Q.** For Glatiramer acetate [Copaxone], which “TNF secretion in vitro” value (TNF secretion) is on record?
**A.** down-regulate TNF secretion in vitro

**Q.** With cyclo(-DF-S-Σ-R-DF-S-Σ-R-) as the substance, how does the “TNF (blood)” value (TNF; 1 mg peptide i.p. in transcutol/cyclodextrin, 1 mg LPS one hour later, blood 150 minutes later, vehicle 10717) read?
**A.** 2370 pg/mL

**Q.** What about the “reduction of TNF production versus vehicle” value (TNF; 1 mg peptide i.p., LPS stimulus) of the same substance?
**A.** greater than 75%

**Q.** What about the “Concentration of TNF” value [2] of the same substance?
**A.** 865.4 pg/mL

**Q.** And the “inhibition of TNF secretion” value ([3]; in words, down to 2 ug/ml in the well, cyclodextrin from 40:1 wt:wt downwards)?
**A.** significant inhibition

**Q.** And the TNF concentration ([3]; peptide 2 ug/ml, cyclodextrin:peptide 1.25 by weight)?
**A.** 2161.8 pg/mL

**Q.** What about the TNF concentration ([3]; peptide 2 ug/ml, cyclodextrin:peptide 2.5 by weight) of the same substance?
**A.** 2314.2 pg/mL

**Q.** What about the TNF concentration ([3]; peptide 2 ug/ml, cyclodextrin:peptide 5 by weight) of the same substance?
**A.** 2177.2 pg/mL

**Q.** What about the TNF concentration ([3]; peptide 2 ug/ml, cyclodextrin:peptide 10 by weight) of the same substance?
**A.** 2278.3 pg/mL

**Q.** What about the TNF concentration ([3]; peptide 2 ug/ml, cyclodextrin:peptide 20 by weight) of the same substance?
**A.** 2223.9 pg/mL

**Q.** What about the TNF concentration ([3]; peptide 2 ug/ml, cyclodextrin:peptide 40 by weight, LPS 0.625 ug/ml, no peptide 2519.3) of the same substance?
**A.** 2450.2 pg/mL

**Q.** What about the TNF concentration ([3]; peptide 4 ug/ml, cyclodextrin:peptide 1.25 by weight) of the same substance?
**A.** 1599.9 pg/mL

**Q.** What about the TNF concentration ([3]; peptide 4 ug/ml, cyclodextrin:peptide 2.5 by weight) of the same substance?
**A.** 1538.7 pg/mL

**Q.** What about the TNF concentration ([3]; peptide 4 ug/ml, cyclodextrin:peptide 5 by weight) of the same substance?
**A.** 1477.5 pg/mL

**Q.** And the TNF concentration ([3]; peptide 4 ug/ml, cyclodextrin:peptide 10 by weight)?
**A.** 1474.8 pg/mL

**Q.** What about the TNF concentration ([3]; peptide 4 ug/ml, cyclodextrin:peptide 20 by weight) of the same substance?
**A.** 1488.1 pg/mL

**Q.** And the TNF concentration ([3]; peptide 4 ug/ml, cyclodextrin:peptide 40 by weight)?
**A.** 1646.5 pg/mL

**Q.** And the TNF concentration ([3]; peptide 8 ug/ml, cyclodextrin:peptide 1.25 by weight)?
**A.** 1130.9 pg/mL

**Q.** And the TNF concentration ([3]; peptide 8 ug/ml, cyclodextrin:peptide 2.5 by weight)?
**A.** 1105.7 pg/mL

**Q.** And the TNF concentration ([3]; peptide 8 ug/ml, cyclodextrin:peptide 5 by weight)?
**A.** 1140.6 pg/mL

**Q.** What about the TNF concentration ([3]; peptide 8 ug/ml, cyclodextrin:peptide 10 by weight) of the same substance?
**A.** 1218.7 pg/mL

**Q.** What about the TNF concentration ([3]; peptide 8 ug/ml, cyclodextrin:peptide 20 by weight) of the same substance?
**A.** 1298.4 pg/mL

**Q.** What about the TNF concentration ([3]; peptide 8 ug/ml, cyclodextrin:peptide 40 by weight) of the same substance?
**A.** 1276.9 pg/mL

**Q.** What about the TNF concentration ([4]; peptide 3.125 ug/ml, LPS alone 1780.09) of the same substance?
**A.** 1494.53 pg/mL

**Q.** And the TNF concentration ([4]; peptide 6.25 ug/ml)?
**A.** 1346.20 pg/mL

**Q.** What about the TNF concentration ([4]; peptide 12.5 ug/ml) of the same substance?
**A.** 1037.31 pg/mL

**Q.** And the TNF concentration ([4]; peptide 25.0 ug/ml)?
**A.** 621.75 pg/mL

**Q.** What about the TNF concentration ([4]; peptide 50.0 ug/ml) of the same substance?
**A.** 613.70 pg/mL

**Q.** For “cyclo(-A-K-Σ-E-Y-K-A-Σ-Y-E-) (cyclo(AK[Gly(decyl)]EYKA[Gly(decyl)]YE); SMILES CCCCCCCCCC[C@@H]1NC(=O)[C@H](C)NC(=O)[C@H](CCCCN)NC(=O)[C@H](Cc2ccc(O)cc2)NC(=O)[C@H](CCC(=O)O)NC(=O)[C@H](CCCCCCCCCC)NC(=O)[C@H](CCCCN)NC(=O)[C@H](C)NC(=O)[C@H](CCC(=O)O)NC(=O)[C@H](Cc2ccc(O)cc2)NC1=O) [cyclo(-A-K-Σ-E-Y-K-A-Σ-Y-E), cyclic analogue of Copaxone; Σ = L-alpha aminocarboxylic acid with straight C10 side chain]”, which TNF concentration [5] is on record?
**A.** 928.8 pg/mL

**Q.** For cyclo(-DF-S-Σ10-R-DF-S-Σ10-R-), which “Concentration of TNF” value [1] is on record?
**A.** 85.7 pg/mL

**Q.** With cyclo(-DF-R-Σ10-S-DF-R-Σ10-S-) as the substance, how does the “Concentration of TNF” value [1] read?
**A.** 268.5 pg/mL

**Q.** With cyclo(-DF-R-Σ4-S-DF-R-Σ4-S-) as the substance, how does the “Concentration of TNF” value [1] read?
**A.** 664.4 pg/mL

**Q.** Which “effect on TNF secretion by macrophages compared with Copaxone” value ([5]; in words) does the source give for “cyclo(-A-K-Σ-Y-E-K-A-Σ-E-Y-) [cyclo(-A-K-Σ-Y-E-K-A-Σ-E-Y)]” here?
**A.** displays the same effect on TNF secretion by macrophages

**Q.** What about the TNF concentration [5] of the same substance?
**A.** 486.9 pg/mL
